Measurements reported in patent publication US7745492B2, “Carboxamido opioid compounds” (Janssen Pharmaceutical, priority 2004, dated 2010).

Experiments:
Male Sprague Dawley rats = experiment: Spinal nerve ligation (SNL) model of neuropathic pain, mechanical allodynia (Von Frey); type: in vivo; settings: rat, at 2 h
Experimental: Spinal Nerve Ligation (SNL) Model of Neuropathic Pain
Male Sprague Dawley rats weighing 145 to 165 g (approximately 6 weeks of age) were obtained from Harlan (Indianapolis, Ind.). Food and water were provided ad lib and a 12 h light and 12 h dark cycle were maintained. Animals were group housed under specific pathogen-free, barrier maintained environment and were allowed to acclimate for no less than 1 week. Following surgery, animals were housed individually in solid bottom polycarbonate cages with automatic watering devices at 22° C. and a relative humidity of 60%. All animals received Harland Tekland Diet # 8604.
Anesthesia was induced using isoflurane (IsoVet™) inhalant in an induction chamber (3-5% in 2 L/min of O2). Once recumbent, the animal was removed and placed into a nose cone which delivered inhalant isoflurane (0.5-2.5% at 2 L/min Of O2). The dorsal pelvic area was shaved and scrubbed aseptically with chlorhexidine scrub, 70% alcohol, and a 5% chlorhexidine solution. The animal was held in ventral recumbency on a heating pad, and the surgical procedure described by Kim and Chung (1992) was performed. The left paraspinal muscles were separated from the spinous processes at the level of Lumbar 4 to Sacral 2 (L4-S2). Once the musculature was retracted, the L6 transverse process was removed using a small rongeur. L4 and L5 spinal nerves could then be visualized. L5 was then isolated and ligated using 6-0 silk suture material. Warm saline and a dose of long-acting antibiotic was administered immediately post-op before recovery form anesthesia.
At least one week following surgery, animals were individually placed in a Lucite testing chamber with a wire mesh bottom. Mechanical (tactile) allodynia was measured by recording the pressure at which the affected paw was withdrawn from graded stimuli (Von Frey hairs ranging from 4.0 to 148.1 mN equivalent to 0.25 to 15 g of pressure) applied to the plantar surface of the paw (between the footpads) according to the procedure of Chaplan et. al (1994) in order to calculate paw withdrawal threshold (PWT). Normal rats can withstand at least 15 g of pressure without responding. SNL rats can respond to as little as 0.25 g of pressure. Rats were included in this study only if their PWT was below 4.0 g.
Animals were used for compound testing between 2 weeks and 8 weeks post-operatively. Animals were always pre-tested for baseline withdrawal threshold on the day of testing. Following a 16 h fast, PWT was evaluated at 30 min, 1 h, 2 h, and 4 h post-dosing. Dose-response studies were conducted at the time of peak effect. Studies were conducted in a blinded manner.
Data were normalized and results were presented as % MPE (maximum possible effect) of the drug.

[1] = Metabolic stability in rat liver microsomes; type: in vitro ADME; settings: 10 min incubation
Experimental: (§1) The metabolic stability of Compound 3 was investigated using several approaches. The compound was incubated with liver microsomes from mouse, rat, dog and human and the percent of compound remaining after ten min quantified. The compound was metabolically robust in all species tested.

[2] = Metabolic stability in human liver microsomes; type: in vitro ADME
Experimental: as §1
In a follow up study in human liver microsomes, the percent of compound remaining was determined at several incubation times (30, 60 and 90 min). The in vitro half life of the compound was determined to be >100 minutes.

[3] = target: recombinant human P450 3A4 (Homo sapiens, UniProt P08684); experiment: Recombinant human P450 isoform inhibition, 3A4; type: in vitro ADME
Experimental: (§2) In a study using recombinant human P450 isoforms, the compound was only a weak inhibitor (IC50>10 μM) of all isoforms tested, 3A4, 2D6, 2C9, 2C19, and 1A2.

[4] = target: recombinant human P450 2D6 (Homo sapiens, UniProt P10635); experiment: Recombinant human P450 isoform inhibition, 2D6; type: in vitro ADME
Experimental: as §2

[5] = target: recombinant human P450 2C9 (Homo sapiens, UniProt P11712); experiment: Recombinant human P450 isoform inhibition, 2C9; type: in vitro ADME
Experimental: as §2

[6] = target: T1, recombinant human P450 1A2 (Homo sapiens, UniProt P05177); experiment: Recombinant human P450 isoform inhibition, 1A2; type: in vitro ADME
T1 sequence (P05177 1-516): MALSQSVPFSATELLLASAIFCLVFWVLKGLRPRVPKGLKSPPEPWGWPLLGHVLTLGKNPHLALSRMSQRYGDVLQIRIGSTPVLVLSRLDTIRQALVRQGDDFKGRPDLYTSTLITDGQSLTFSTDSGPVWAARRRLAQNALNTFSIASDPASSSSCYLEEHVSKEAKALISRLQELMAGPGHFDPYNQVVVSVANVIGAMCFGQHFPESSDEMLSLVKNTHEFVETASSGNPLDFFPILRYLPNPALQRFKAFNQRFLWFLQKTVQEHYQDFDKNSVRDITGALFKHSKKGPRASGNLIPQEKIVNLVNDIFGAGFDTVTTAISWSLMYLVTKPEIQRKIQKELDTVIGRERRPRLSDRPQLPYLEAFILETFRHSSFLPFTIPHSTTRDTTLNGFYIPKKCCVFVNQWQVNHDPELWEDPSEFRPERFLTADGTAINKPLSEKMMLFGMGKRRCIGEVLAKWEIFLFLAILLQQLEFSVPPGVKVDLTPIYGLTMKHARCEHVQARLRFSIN
Experimental: as §2

[7] = Glucuronidation in human liver microsomes; type: in vitro ADME; settings: in vitro

Chain of recombinant human P450 2D6 (P10635 whole entry, canonical isoform): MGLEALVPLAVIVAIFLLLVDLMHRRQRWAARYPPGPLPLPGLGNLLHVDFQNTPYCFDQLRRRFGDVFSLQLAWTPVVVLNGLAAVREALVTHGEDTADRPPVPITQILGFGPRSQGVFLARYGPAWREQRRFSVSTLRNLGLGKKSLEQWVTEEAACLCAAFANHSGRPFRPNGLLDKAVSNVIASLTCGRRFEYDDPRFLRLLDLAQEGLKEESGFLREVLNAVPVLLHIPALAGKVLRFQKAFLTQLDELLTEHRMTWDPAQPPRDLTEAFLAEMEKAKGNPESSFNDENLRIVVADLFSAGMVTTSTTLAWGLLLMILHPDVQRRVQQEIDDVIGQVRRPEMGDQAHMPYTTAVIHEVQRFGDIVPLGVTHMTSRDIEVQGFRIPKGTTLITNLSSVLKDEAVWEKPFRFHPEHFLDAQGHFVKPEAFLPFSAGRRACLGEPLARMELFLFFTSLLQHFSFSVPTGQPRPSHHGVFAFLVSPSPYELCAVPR
Chain of recombinant human P450 2C9 (P11712 whole entry, canonical isoform): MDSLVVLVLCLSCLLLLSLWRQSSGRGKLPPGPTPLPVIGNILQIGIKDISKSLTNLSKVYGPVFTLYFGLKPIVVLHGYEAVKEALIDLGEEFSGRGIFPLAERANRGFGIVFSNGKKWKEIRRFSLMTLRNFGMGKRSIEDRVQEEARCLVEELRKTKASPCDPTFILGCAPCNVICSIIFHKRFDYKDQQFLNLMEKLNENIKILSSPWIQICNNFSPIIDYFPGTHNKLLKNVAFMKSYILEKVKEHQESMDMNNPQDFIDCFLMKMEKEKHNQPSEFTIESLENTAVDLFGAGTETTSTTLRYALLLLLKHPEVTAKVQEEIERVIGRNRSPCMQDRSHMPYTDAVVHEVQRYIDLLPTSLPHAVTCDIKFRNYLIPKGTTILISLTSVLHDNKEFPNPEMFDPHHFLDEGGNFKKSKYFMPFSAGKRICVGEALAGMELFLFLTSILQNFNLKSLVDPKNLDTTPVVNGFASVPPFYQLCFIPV
Chain of recombinant human P450 3A4 (P08684 whole entry, canonical isoform): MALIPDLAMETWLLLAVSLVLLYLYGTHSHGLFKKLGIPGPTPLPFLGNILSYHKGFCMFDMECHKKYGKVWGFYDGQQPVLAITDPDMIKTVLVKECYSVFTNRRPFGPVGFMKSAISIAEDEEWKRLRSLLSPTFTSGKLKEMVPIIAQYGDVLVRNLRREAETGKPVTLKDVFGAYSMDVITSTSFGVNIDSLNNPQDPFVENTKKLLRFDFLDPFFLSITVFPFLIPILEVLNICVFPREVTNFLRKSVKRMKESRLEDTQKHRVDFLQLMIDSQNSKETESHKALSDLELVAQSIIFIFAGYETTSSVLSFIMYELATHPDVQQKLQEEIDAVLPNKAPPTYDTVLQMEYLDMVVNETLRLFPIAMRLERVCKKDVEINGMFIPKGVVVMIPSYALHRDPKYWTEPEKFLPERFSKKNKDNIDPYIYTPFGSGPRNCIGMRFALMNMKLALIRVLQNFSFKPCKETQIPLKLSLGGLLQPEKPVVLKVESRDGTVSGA

CN(C)C[C@H]1CCCC[C@]1(O)c1cccc(C(N)=O)c1 (single isomer, unassigned) [Cpd 3]
ED50 (Male Sprague Dawley rats): 17 mg/kg | % remaining after 10 min [1]: 94.5% | % remaining after 10 min ([2]; 10 min incubation): 101.4% | Metabolism in human liver microsomes (result in words) ([2]; 10 min incubation): no metabolism of the compound was observed | half-life ([2]; incubation times 30, 60 and 90 min, read-out: In vitro half life): > 1.67 h | IC50 [3]: > 10 µM | IC50 [4]: > 10 µM | IC50 [5]: > 10 µM | IC50 [6]: > 10 µM | Glucuronidation [7]: no glucuronidation of the compound was detected
